Laboratory results reported in publication PMC9011347, “Small-Molecule Inhibitors Targeting Lipolysis in Human Adipocytes” (Journal of the American Chemical Society, 2022).

Target: T1, mouse ATGL I69F/T146G double mutant (Mus musculus, UniProt Q8BJ56, I69F/T146G)
T1 construct: host or cells: Expi293 cells, cell lysate
Assay: TAG hydrolase assay, humanized mouse ATGL variants
Type: biochemical
Settings: I69F/T146G double mutant of mouse ATGL
Source text: The region between aa 60 and 146 of human and mouse ATGL comprises 12 nonidentical aa. We generated 3D homology models for the minimal active domain of mouse ATGL to obtain more detailed insight into the topology of the relevant region (Figure 5d). Based on this model, aa T101, C106, R109, N111, and S133 locate at peripheral (loop) regions (indicated in orange, Figure 5d). […] For all other nonidentical aa (indicated in magenta, Figure 5d), we generated variants with single aa substitutions. The humanized variants A60V, N68K, T93I, and C97F were inactivated by Ai but not NG-497 (Figure 5a).
Figure 6 Identification of the molecular scaffold determining species selectivity. (a) Schematic view of mouse ATGL variants, which are sensitive to NG-497 inhibition. Humanized aa are indicated in red and nonidentical aa are indicated in dark blue. (b) Dose-dependent inhibition of the I69F/T146G double mutant, the I69F/T93I/C97F/T146G quadruple mutant, and human ATGL. (c) Dose-dependent inhibition of triple mutants I69F/T93I/T146G and I69F/C97F/T146G, and human ATGL. IC50 values are shown in the insets. […]
Expression of recombinant ATGL constructs and preparation of cell lysates. […] Protein concentrations were determined using Bio-Rad protein assay (Bio-Rad 785, Bio-Rad Laboratories, Munich, Germany) using BSA as standard. […]

T1 sequence (Q8BJ56 whole entry I69F/T146G): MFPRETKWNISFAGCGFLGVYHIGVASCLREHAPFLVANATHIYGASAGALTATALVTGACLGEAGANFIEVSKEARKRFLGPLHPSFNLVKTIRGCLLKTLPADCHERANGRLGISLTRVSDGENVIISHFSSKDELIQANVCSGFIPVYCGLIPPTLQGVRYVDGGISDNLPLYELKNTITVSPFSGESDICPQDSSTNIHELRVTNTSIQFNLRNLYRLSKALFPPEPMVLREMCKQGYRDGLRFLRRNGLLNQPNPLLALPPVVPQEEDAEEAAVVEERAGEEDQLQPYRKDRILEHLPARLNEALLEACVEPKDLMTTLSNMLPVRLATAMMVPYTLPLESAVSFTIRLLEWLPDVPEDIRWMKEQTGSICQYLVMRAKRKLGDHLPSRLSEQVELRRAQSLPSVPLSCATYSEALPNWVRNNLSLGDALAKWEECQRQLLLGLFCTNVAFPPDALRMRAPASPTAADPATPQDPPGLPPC

CCOc1ccc(-c2cc(OC)cc(C(=O)OC(C)C)n2)cc1 [NG-497]
IC50: 9 µM
